US20130012527A1, “PREQ1 RIBOSWITCHES AND METHODS AND COMPOSITIONS FOR USE OF AND WITH PREQ1 RIBOSWITCHES” (YALE UNIVERSITY, priority 2007, published 2013)

Tests used:
wild-type 80 queC RNA = assay: In-line probing analysis of wild-type 80 queC RNA; assay type: binding, B. subtilis; settings: for structure modulation: wild-type 80 queC, 200 μM
From the text: This possibility was examined by comparing the ligand binding characteristics of a wild-type queC construct (80 queC) with those of two mutant RNAs in which absolutely conserved cytidine residues were individually replaced with uridines (FIG. 6a). 2,6-diaminopurine was included in the panel of test compounds since it was previously established that the 2-amino group was critical for ligand recognition by the preQ1 aptamer (FIG. 4c). It was therefore anticipated that compounds lacking this moiety, such as adenine or 7-aminomethyl-7-deazaadenine, might not bind detectably, despite their potential for base pairing with a uridyl discriminator residue.
(§1) In-line probing analysis. […] .

[1] = tested on: M1 RNA (80 queC, cytidine 34 replaced with uridine); assay: In-line probing analysis of 80 queC mutant M1; assay type: binding, B. subtilis; settings: for structure modulation: 200 μM
[2] = tested on: queC RNA construct containing the analogous C34U mutation; assay: In-line probing of a queC RNA construct with the analogous C34U mutation; assay type: binding; settings: concentrations as high as 1 mM
From the text: as §1

106 queC RNA = assay: Equilibrium dialysis, competition with 3H-guanine; assay type: binding, B. subtilis; settings: 100 nM 3H-guanine, 20 μM RNA, unlabeled compound at a concentration exceeding that of the RNA
From the text: To provide additional support for a specific physical interaction between preQ1 and the queC RNA motif, competitive binding experiments were done using an equilibrium dialysis apparatus containing two chambers separated by a permeable membrane with a molecular weight cut-off of 5000 Daltons (FIG. 4d). Because guanine is recognized by the queC motif with nanomolar affinity (FIG. 4c), we first added ^3H-guanine and a molar excess of 106 queC RNA individually to the respective chambers. […].
Samples containing either 100 nM ^3H-guanine or 20 μM 106 queC RNA, each prepared in the same buffer solution used for in-line probing, were added in 30 μL volumes to opposite chambers of a DispoEquilibrium Dialyzer (ED-1, Harvard Bioscience). Following equilibration at 25° C. for 10-15 h, aliquots of 5 μL were withdrawn and quantitated with a liquid scintillation counter. For competitive binding experiments, 3 μL of buffer containing 1 mM unlabeled test compound was subsequently delivered to the RNA-containing chamber, while the same volume of buffer was added to the opposite chamber. After another equilibration period, 5 μL aliquots were again removed to assess the distribution of ^3H-guanine.

[3] = target: 52 queC RNA (B. subtilis queC element); assay: In-line probing analysis of 52 queC RNA; assay type: binding; settings: in-line probing over a range of ligand concentrations, read-out: Kd (apparent)
Method: RNA construct 52 queC (FIG. 4a) was used to examine the degree of ligand selectivity of the B. subtilis queC element. Affinities for various purine compounds were determined by subjecting 5′ ^32P-labeled 52 queC to in-line probing analyses using a range of ligand concentrations, followed by the quantitative analysis of the levels of ligand-dependent structure modulation.
A more detailed understanding of the molecular contacts involved in ligand recognition by 52 queC was obtained by determining the apparent Kd values for a series of purine analogs (FIG. 4c).

| SMILES | structure modulation (wild-type 80 queC RNA) | structure modulation ([1]; M1 (C34U)) | competition with 3H-guanine sequestration in the RNA chamber (106 queC RNA) | Kd [3] | also measured |
| --- | --- | --- | --- | --- | --- |
| Nc1nc(N)c2[nH]cnc2n1 [2,6-diaminopurine] | Structural changes in this construct are also induced | key changes are observed |  |  | Kd (wild-type 80 queC RNA; 80 queC): > 300 µM; lowest concentration at which alterations in structure are detected (wild-type 80 queC RNA; 80 queC): 10 µM; relative loss in binding affinity ([1]; C34U mutant with 2,6-diaminopurine versus wild-type queC RNA with guanine): more than 600 fold; Kd ([1]; M1 (C34U), data not shown): > 300 µM |
| NCC1C=Nc2ncnc(N)c21 (stereo not shown) [7-aminomethyl-7-deazaadenine] |  |  |  |  | modulation of RNA structure [2]: fail to modulate the structure |
| Nc1nc2c(c(=O)[nH]1)CC=N2 [7-deazaguanine] |  |  | competitively reversed |  |  |
| Nc1ncnc2nc[nH]c12 [adenine] | does not result in structure modulation | failure of adenine to induce any conformational response | did not serve as a competitor |  | binding to M1 RNA ([1]; M1 (C34U), in words): absence of adenine binding |
| Nc1nc2nc[nH]c2c(=O)[nH]1 [guanine] | structure modulation occurs |  | competitively reversed | ~0.5 µM |  |
| N#CC1C=Nc2nc(N)[nH]c(=O)c21 (stereo not shown) [preQ0, 7-cyano-7-deazaguanine] |  |  |  | ~0.1 µM |  |
